“Also recorded” adds a separate entry of the source.
Experiments:
5-LO [1] = biological target: T1, 5-LO (Homo sapiens, UniProt P09917); assay: Biosynthesis of 5-LO products by thapsigargin-stimulated PMNL; type: cell-based; set-up: endogenous in cells; host or cells: human polymorphonuclear leukocytes (PMNL) isolated from whole blood; conditions: freshly isolated human PMNL, 5 min preincubation, 1 μM thapsigargin 15 min; 95% CI in brackets; read-out: IC50 (95% CI) for the inhibition of 5-LO product biosynthesis in human PMNL
T1 sequence (P09917 1-674): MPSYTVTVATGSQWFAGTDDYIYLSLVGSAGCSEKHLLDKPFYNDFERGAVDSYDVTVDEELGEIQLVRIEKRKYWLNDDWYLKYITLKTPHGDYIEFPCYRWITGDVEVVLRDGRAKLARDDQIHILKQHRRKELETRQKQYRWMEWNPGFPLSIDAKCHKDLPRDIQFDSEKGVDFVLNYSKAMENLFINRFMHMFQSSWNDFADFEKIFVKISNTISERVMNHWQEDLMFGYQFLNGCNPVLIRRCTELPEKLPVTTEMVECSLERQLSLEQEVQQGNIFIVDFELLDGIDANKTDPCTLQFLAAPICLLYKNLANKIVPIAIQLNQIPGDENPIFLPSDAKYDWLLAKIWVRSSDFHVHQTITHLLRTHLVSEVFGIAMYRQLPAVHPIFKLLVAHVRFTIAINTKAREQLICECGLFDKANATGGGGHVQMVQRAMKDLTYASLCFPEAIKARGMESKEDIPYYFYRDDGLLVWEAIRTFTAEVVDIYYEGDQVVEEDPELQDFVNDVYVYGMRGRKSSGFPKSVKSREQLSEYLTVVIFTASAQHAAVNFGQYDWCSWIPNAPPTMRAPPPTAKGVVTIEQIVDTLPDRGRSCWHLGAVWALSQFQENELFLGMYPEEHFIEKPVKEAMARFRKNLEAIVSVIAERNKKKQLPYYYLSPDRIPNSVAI
Experimental: Polymorphonuclear leukocytes (PMNL) were isolated as previously described. Briefly, whole blood was collected (with anticoagulant citrate dextrose (ACD)) and then centrifuged at 500 g for 10 min. Platelet-rich plasma (PRP) was set aside for platelet isolation (see below), and erythrocytes were removed by dextran sedimentation. After a centrifugation step at 900 g × 20 min at room temperature on a lymphocyte separation medium cushion (density, 1.077 g/ml) (Wisent), PMNL were obtained (>96%) followed by hypotonic lysis of the remaining erythrocytes. PMNL were counted and resuspended at 10^7 cells/ml in HBSS supplemented with 1.6 mM CaCl2. PRP was processed as previously described for platelet isolation. Briefly, PRP was centrifuged at 400 g for 2 min at room temperature to remove the remaining erythrocytes. The supernatant was then centrifuged at 1300g for 10 min to pellet platelets. Cells were resuspended in Tyrode Buffer pH 7.4 (134 mM NaCl, 2.9 mM KCl, 0.34 mM Na2HPO4, 12 mM NaHCO3, 20 mM HEPES, 1 mM MgCl2, 5 mM glucose, and 0.5 mg/ml BSA) at 3 × 10^8 cells/ml in the presence of 5 mM CaCl2.
Suspended PMNL (10^7 cells/ml) were incubated at 37°C with adenosine deaminase (0.3 U/ml, Sigma-Aldrich) and test compounds at indicated concentrations 5 min before stimulation. To initiate stimulation, 1 μM of thapsigargin (Sigma-Aldrich) was added to cells which were then incubated for 15 min at 37°C [31]. Two volumes of MeOH:MeCN (1 : 1) containing the internal standard PGB2 (100 ng/ml) was then added, and samples were processed for RP-HPLC analysis as described above.
Statistical analysis and graph design were performed with GraphPad Prism 5 software (GraphPad Software, San Diego, California). IC50 values were calculated from a sigmoidal concentration-response curve-fitting model and are expressed as means with 95% confidence intervals. All other data are expressed as mean ± SEM. One-way ANOVA with Dunnett's multiple comparison test (p < 0.05) were performed to determine significant difference from controls.
(§1) Figure 2 Effect of the test compounds on the biosynthesis of 5-LO products in transfected HEK293 cells (a) and thapsigargin-stimulated PMNL (b). (a) HEK293 cells expressing both 5-LO and FLAP were incubated in presence of the indicated compounds (1 μM) or their diluent (control, 0.5% DMSO) for 5 min, then biosynthesis of 5-LO products was initiated with the addition of 10 μM calcium ionophore A23187 and 10 μM arachidonic acid for 15 min. After stimulation, reactions were stopped and samples were processed for analysis of 5-LO products by RP-HPLC. Total 5-LO products measured represent the sum of LTB4, its trans isomers, and 5-hydroxyeicosatetraenoic acid. (b) Freshly isolated human PMNL were incubated in presence of test compounds (or their diluent control, DMSO 0.5%) at the indicated concentrations for 5 min. Biosynthesis of the 5-LO products was initiated with the addition of 1 μM of thapsigargin, followed by a 15 min incubation period at 37°C. The stimulation was then stopped and samples were processed for RP-HPLC analysis and total 5-LO products quantification. Total 5-LO products measured represent the sum of LTB4, its trans isomers, 20-COOH- and 20-OH-LTB4 and 5-hydroxyeicosatetraenoic acid. Data are expressed as means ± SEM of at least 3 independent experiments. ^∗Different from control, as determined by one-way ANOVA with Dunnett's multiple comparison test (p < 0.05).

5-LO [2] = biological target: T1, 5-LO; assay: Biosynthesis of 5-LO products in HEK293 cells expressing 5-LO and FLAP (A23187 + arachidonic acid); type: cell-based; set-up: expressed in transfected cells; host or cells: HEK293; conditions: 1 μM compound, 10 μM A23187 + 10 μM arachidonic acid, 15 min
Experimental: HEK293 cells expressing both 5-LO and the 5-lipoxygenase activating protein (FLAP) were generated as previously reported. For cell stimulation of 5-LO products, transfected HEK293 cells were collected following trypsinization and washed and the cell pellet was resuspended in Hank's balanced salt solution (HBSS, Lonza) containing 1.6 mM CaCl2 at a concentration of 5 × 10^5 cells/ml. Cells were preincubated with each compound at the indicated concentration for 5 min at 37°C. Cells were then stimulated for 15 minutes at 37°C with the addition of 10 μM calcium ionophore A23187 (Sigma-Aldrich) and 10 μM arachidonic acid (Cayman Chemical). Stimulations were stopped by adding 0.5 volume of cold MeOH:MeCN (1 : 1) containing 100 ng/ml of 19-OH prostaglandin B2 (PGB2) as internal standard. Samples were then processed and 5-LO products were analyzed by reversed-phase high-performance liquid chromatography (RP-HPLC) as described previously.
To evaluate CAPE analogues as potential inhibitors of the biosynthesis of 5-LO products, a first series of experiments was performed in HEK293 cells expressing both 5-LO and FLAP as previously described. HEK293 cells were first preincubated with the test compounds (1 μM), then stimulated in the presence of arachidonic acid and calcium ionophore A23187 to induce the biosynthesis of 5-LO products (Figure 2(a)). […] Based on these criteria, compounds 9, 13, 14, 15, 16, and 19 were selected for subsequent analyses.
as §1

PMNL = assay: Annexin V labelling of PMNL (early apoptosis); type: cell-based, human; conditions: 20 min incubation at 37°C
Source text: A positive control with 10% EtOH is shown to validate the assay.

SMILES	IC50 (5-LO [1]) [nM]	Inhibition of biosynthesis of 5-LO products in transfected HEK293 cells (5-LO [2])	Induction of early apoptosis of PMNL (annexin V labelling) (PMNL)
O=C(/C=C/c1ccc(O)c(O)c1)OCCc1ccccc1 [CAPE (2), Caffeic acid phenethyl ester, reference compound]	790	significantly inhibited the biosynthesis of 5-LO products	
C=C(C)CCOC(=O)/C=C/c1ccc(O)c(O)c1 [Compound 9]	870	showed similar or better inhibitory activity than the reference compound CAPE (2), or decreased the biosynthesis of 5-LO products by more than 50%; also recorded: best inhibitory activity amongst the compounds from the aliphatic series	
O=C(/C=C/c1ccc(O)c(O)c1)OCCCc1ccccc1 [Compound 13]	490	showed similar or better inhibitory activity than the reference compound CAPE (2), or decreased the biosynthesis of 5-LO products by more than 50%	did not induce early apoptosis of PMNL
O=C(/C=C/c1ccc(O)c(O)c1)OCCc1ccc(F)cc1 [Compound 14]	1010	showed similar or better inhibitory activity than the reference compound CAPE (2), or decreased the biosynthesis of 5-LO products by more than 50%	
Cc1ccc(CCOC(=O)/C=C/c2ccc(O)c(O)c2)cc1 [Compound 15]	1040	showed similar or better inhibitory activity than the reference compound CAPE (2), or decreased the biosynthesis of 5-LO products by more than 50%	
COc1ccc(CCOC(=O)/C=C/c2ccc(O)c(O)c2)cc1 [Compound 16]	1290	showed similar or better inhibitory activity than the reference compound CAPE (2), or decreased the biosynthesis of 5-LO products by more than 50%	
O=C(/C=C/c1ccc(O)c(O)c1)OCC(c1ccccc1)c1ccccc1 [Compound 19]	530	showed similar or better inhibitory activity than the reference compound CAPE (2), or decreased the biosynthesis of 5-LO products by more than 50%	

From publication PMC5478869, “New Hydroxycinnamic Acid Esters as Novel 5-Lipoxygenase Inhibitors That Affect Leukotriene Biosynthesis” (Mediators of Inflammation, 2017)
